Test results reported in US10285986B2, “Compounds and anti-tumor NQO1 substrates” (The Board of Trustees of the University of Illinois, priority 2011, dated 2019).
Converted amounts (≈) assume the structure as drawn. “And” between values parts separate entries of the source, which are not always exact repeats. Equal values may be shown once. Read-outs that look alike come from different tables or passages of the source.

Tests used:
MCF-7 cells = test: Cytotoxicity to MCF-7 cells with or without 25 μM dicoumarol (sulforhodamine B assay); assay type: cell-based, human; settings: for IC50: Homo sapiens; for Fold Protection of MCF7 cells w/ 25 μM dicoumarol: Table 1
Experimental: The NQO1-dependent cytotoxicity of the first set of derivatives was determined in MCF-7 cells which express high levels of NQO1. Cells were exposed to DNQ for 2 hours in the presence or absence of 25 μM DIC. The media was then removed and cells were washed once with media then fresh media was added and the cells were incubated for 72 hours. Cell death was assessed using the sulforhodamine B assay previously described. […] Substitution off the nitrogen appeared well tolerated (4-14 and 4-15).
The DNQ derivatives synthesized were assayed for their toxicity to MCF-7 cells with or without DIC. The data from these experiments is organized in Table 4.2. […] This tolerance of sterically-demanding substituents corresponds with a flexible and promiscuous NQO1 active site. The poor activity of hydroxyl derivative 4-41 may be a result of either poor binding with the largely hydrophobic NQO1 active site or with an excessively strong substrate-enzyme interaction because of hydrogen bonding.

NQO1 = NQO1 (Homo sapiens, UniProt P15559); test: NQO1 enzymatic measurements in vitro; assay type: biochemical; settings: 1 μM substrate
Experimental: As further evidence that the activity of these DNQ derivatives is dependent on their ability to be reduced by NQO1, full enzymatic measurements in vitro were performed. We found a strong correlation between catalytic efficiency of substrates in vitro and their cell culture toxicity. […] This provides strong evidence that the cytotoxicity of DNQ and its derivatives are dependent primarily upon the activity of NQO1 within the cell.

[1] = Aqueous solubility in pH 7.4 PBS by LC-MS; assay type: physicochemical; settings: phosphate buffered saline, pH 7.4, aqueous buffer, thermodynamic from solid, PBS pH 7.4; Table 4.3
Experimental: The aqueous solubility of DNQ at pH 7.4 in phosphate buffered saline (PBS) was measured by LC-MS. DNQ was sonicated for 30 minutes in PBS then undissolved solid was removed by filtration through a 0.45 μm syringe filter and the filtrate was analyzed by LC-MS (λ=275 nm, ESI-TOF in negative mode). The optimal sonication time was determined by sonicating DNQ for 1, 5, 10, and 30 minutes. While the concentration of DNQ in solution increased substantially between 1, 5, and 10 minutes, there was only a minor difference between 10 and 30 minutes. During the 30 minute sonication the water bath warmed to 45° C. (samples were cooled to room temperature before filtration). A calibration curve was generated from 1-100 μM by dissolving DNQ in methanol to a concentration of 500 μM and making dilutions of this stock in 80:20 water:methanol. The calibration curve (measure by UV absorbance) was linear over this range; 1 μM was approximately the limit of detection. […] The solution was very pale yellow.
The aqueous solubility of the compounds was determined by an LC-MS assay as described in the specification above. We applied the calibration curve generated for DNQ to the derivatives under the assumption that the UV profile of the derivatives of DNQ would be similar to that of DNQ.
After sonication and filtration most of the aqueous solutions were colorless. The solutions of DNQ, 4-31, and 4-37 were faintly yellow while 4-8, 4-14 and 4-41 were substantially more colored. The solution of 4-8, 4-14 and 4-41 were diluted 10-fold with PBS prior to LC-MS analysis to ensure that the concentrations fell within the range of the calibration curve.

[2] = Solubility in 20% HPβCD solution (pH modulation protocol); assay type: physicochemical; settings: 20% HPβCD in pH 7.4 PBS, pH 7.4, aqueous with cosolvent or surfactant or cyclodextrin, thermodynamic from solid; 20% HPβCD; Table 4.3
Experimental: The protocol for formulating DNQ compounds in HPβCD is as follows: the DNQ compound is slurried in a 20% solution of HPβCD in pH 7.4 PBS and the pH is then increased by the addition of 10 M NaOH to induce dissolution of the DNQ compound. The pH is returned to pH 7.5-8.0 by the careful addition of 1 M HCl. A 3.3 mM solution of the DNQ compound can be made by this method which is stable at least 24 hours. This represents a 30-fold increase in solubility of DNQ over PBS alone.
Although we were pleased to find active derivatives of DNQ that were up to 4-fold more soluble in water—sufficiently soluble for continuous IV infusion for human administration—this level of solubility was insufficient for animal studies by bolus injection. […] We used the same pH modulation protocol outlined for DNQ described in the specification above. The results are organized in Table 4.3 and FIG. 8. While all compounds were more soluble in HPβCD than in buffer alone, the fold increase in solubility varied widely.

[3] = Solubility in organic solvents; assay type: physicochemical; settings: for solubility: organic solvent or mixture, thermodynamic from solid
Experimental: The solubility of DNQ derivatives in organic solvents was determined by measuring the amount of a given solvent required to dissolve a known amount of compound. Solvent was added to the compound in 50 μL aliquots and the slurry was sonicated. […] Solubility was assessed in DMSO, dichloromethane, and 33% methanol in dichloromethane (FIGS. 9, 10, and 11, respectively).

[4] = Solubility in organic solvents; assay type: physicochemical; settings: organic solvent or mixture, thermodynamic from solid; THF; Table 1
[5] = Maximum tolerated dose in mice; settings: mouse, in vivo, ip
Excerpt: Because of the difficulty of repeated tail vein injections in mice, our group is using IP administration of compound.
All of these derivatives are currently being assessed for their maximum tolerated dose (MTD) in healthy mice. Compounds are formulated in HPβCD and delivered by IP injection to two mice once daily for five days.

[6] = MCF7, Table 1, read-out: MCF7 IC50
[7] = MCF7, Table 4.2, no DIC, ± s.e., read-out: IC50 vs. MCF-7 cells
[8] = MCF7, classification in figure legends of FIGS. 7-11, read-out: IC50 ("active" / generally "inactive" compounds)
[9] = MCF7, read-out: IC50 vs. MCF-7 cells +25 μM DIC, Table 4.2, +25 μM DIC, ± s.e.
[10] = 2:1 CH2Cl2:MeOH, Table 4.3, read-out: Solubility in 2:1 CH2Cl2:MeOH
[11] = CH2Cl2:MeOH 2:1, Table 1, read-out: CH2Cl2:MeOH 2:1 solubility
[12] = CH2Cl2, Table 1, read-out: CH2Cl2 solubility
[13] = DMSO, Table 1, read-out: DMSO solubility
[14] = CH2Cl2, Table 4.3, read-out: Solubility in CH2Cl2
[15] = DMSO, Table 4.3, read-out: Solubility in DMSO
[16] = MCF7, 2 h, Table 4.1, 2 h exposure, no DIC, ± s.e., read-out: IC50 vs. MCF-7 cells
[17] = MCF7, read-out: IC50 vs. MCF-7 cells +25 μM DIC, Table 4.1, +25 μM DIC, ± s.e.

Sequence of NQO1 (P15559 whole entry): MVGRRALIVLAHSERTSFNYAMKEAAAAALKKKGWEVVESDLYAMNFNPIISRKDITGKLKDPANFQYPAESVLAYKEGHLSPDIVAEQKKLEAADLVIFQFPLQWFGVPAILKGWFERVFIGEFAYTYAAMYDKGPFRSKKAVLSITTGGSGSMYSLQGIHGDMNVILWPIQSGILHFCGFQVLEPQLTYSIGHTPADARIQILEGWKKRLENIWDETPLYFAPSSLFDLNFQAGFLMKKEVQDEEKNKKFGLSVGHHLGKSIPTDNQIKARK

| Structure (SMILES) | IC50 (MCF-7 cells; [6]) [nM] | IC50 (MCF-7 cells; [7]) [nM] | IC50 (MCF-7 cells; [8]) [nM] | IC50 (MCF-7 cells; [9]) [nM] | Fold Protection of MCF7 cells w/ 25 μM dicoumarol (MCF-7 cells) | Fold protection by DIC (MCF-7 cells; Table 4.2) | NQO1 Initial Velocity @ 1 μM (NQO1) | solubility at 30 min [1] [mM] | solubility [2] [mM] | Solubility in CH2Cl2 ([3]; CH2Cl2, Table 4.3) [mM] | Solubility in DMSO ([3]; DMSO, Table 4.3) [mM] | solubility [3, 10] [mM] | solubility [3, 11] [mM] | solubility [3, 12] [mM] | solubility [3, 13] [mM] | solubility [4] [mM] | MTD at 5 days [5] | other results |
| --- | --- | --- | --- | --- | --- | --- | --- | --- | --- | --- | --- | --- | --- | --- | --- | --- | --- | --- |
| CCCCn1c2c(c(C)cc1=O)C(=O)c1c(C)cc(=O)[nH]c1C2=O [Compound 4-22] | 270 | 270 ± 40 | < 500 | 1500 ± 400 | 5.5 | 5.5 | 2100 ± 300 | 0.017 (≈ 5.55 µg/mL) | 4 (≈ 1310 µg/mL) | 7.6 (≈ 2480 µg/mL) | 10 (≈ 3260 µg/mL) | 30 (≈ 9790 µg/mL) | 30 (≈ 9790 µg/mL) | 7.6 (≈ 2480 µg/mL) | 10 (≈ 3260 µg/mL) | 6.1 (≈ 1990 µg/mL) | – | – |
| Cc1cc(=O)[nH]c2c1C(=O)c1c(C)cc(=O)n(C(C)C)c1C2=O [Compound 4-30] | – | 240 ± 20 | < 500 | 2100 ± 800 | – | 8.6 | – | 0.041 (≈ 12.8 µg/mL) | 3.7 (≈ 1160 µg/mL) | – | – | 79 (≈ 24700 µg/mL) | – | – | – | – | – | solubility [3, 14]: 5.6 mM (≈ 1750 µg/mL); solubility [3, 15]: 21 mM (≈ 6560 µg/mL) |
| Cc1cc(=O)[nH]c2c1C(=O)c1c(C)cc(=O)n(CC3CC3)c1C2=O [Compound 4-37] | – | 220 ± 10 | < 500 | 1400 ± 200 | – | 6.1 | – | 0.114 (≈ 37 µg/mL) | 4.3 (≈ 1390 µg/mL) | – | – | 51 (≈ 16500 µg/mL) | – | – | – | – | – | solubility [3, 14]: 13 mM (≈ 4220 µg/mL); solubility [3, 15]: 25 mM (≈ 8110 µg/mL) |
| Cc1cc(=O)[nH]c2c1C(=O)c1c(C)cc(=O)n(CCC(C)C)c1C2=O [Compound 9-249] | 150 ± 30 | 180 ± 30 | < 500 | 1800 ± 500 | 12 | 10 | 2100 ± 90 | 0.006 (≈ 2.04 µg/mL) | 4.7 (≈ 1600 µg/mL) | 9.7 (≈ 3300 µg/mL) | 8.6 (≈ 2930 µg/mL) | 58 (≈ 19700 µg/mL) | 58 (≈ 19700 µg/mL) | 9.7 (≈ 3300 µg/mL) | 8.6 (≈ 2930 µg/mL) | 8.8 (≈ 3000 µg/mL) | 15 mg/kg and 44 µmol/kg | – |
| Cc1cc(=O)[nH]c2c1C(=O)c1c(C)cc(=O)n(CC(C)(C)C)c1C2=O [Compound 9-253] | 110 ± 40 | 230 ± 10 | < 500 | 2100 ± 700 | 9 | 8.9 | 1700 ± 100 | 0.024 (≈ 8.17 µg/mL) | 9.4 (≈ 3200 µg/mL) | 23 (≈ 7830 µg/mL) | 16 (≈ 5450 µg/mL) | 100 (≈ 34000 µg/mL) | 100 (≈ 34000 µg/mL) | 23 (≈ 7830 µg/mL) | 16 (≈ 5450 µg/mL) | 20 (≈ 6810 µg/mL) | ≥ 15 mg/kg and ≥ 44 µmol/kg | – |
| CCCCCn1c2c(c(C)cc1=O)C(=O)c1c(C)cc(=O)[nH]c1C2=O [Compound 9-255] | 190 ± 10 | 200 ± 10 | < 500 | 2000 ± 900 | 11 | 10 | 1700 ± 40 | < 0.005 | 5 (≈ 1700 µg/mL) | 22 (≈ 7490 µg/mL) | 17 (≈ 5790 µg/mL) | 95 (≈ 32300 µg/mL) | 95 (≈ 32300 µg/mL) | 22 (≈ 7490 µg/mL) | 17 (≈ 5790 µg/mL) | 16 (≈ 5450 µg/mL) | ≥ 15 mg/kg and ≥ 44 µmol/kg | – |
| CCCCCCn1c2c(c(C)cc1=O)C(=O)c1c(C)cc(=O)[nH]c1C2=O [Compound 9-257] | 260 ± 40 | 290 ± 40 | < 500 | 3000 ± 600 | 11 | 10 | 1850 ± 60 | < 0.005 | 6 (≈ 2130 µg/mL) | 32 (≈ 11300 µg/mL) | 18 (≈ 6380 µg/mL) | 140 (≈ 49600 µg/mL) | 140 (≈ 49600 µg/mL) | 32 (≈ 11300 µg/mL) | 18 (≈ 6380 µg/mL) | 27 (≈ 9570 µg/mL) | ≥ 16 mg/kg and ≥ 44 µmol/kg | – |
| CCCn1c2c(c(C)cc1=O)C(=O)c1c(C)cc(=O)[nH]c1C2=O [Compound 10-41] | 120 ± 10 | – | < 500 | – | 10 | – | 1590 ± 70 | 0.039 (≈ 12.2 µg/mL) | 6.3 (≈ 1970 µg/mL) | 3.9 (≈ 1220 µg/mL) | 8.9 (≈ 2780 µg/mL) | 32 (≈ 9990 µg/mL) | 32 (≈ 9990 µg/mL) | 3.9 (≈ 1220 µg/mL) | 8.9 (≈ 2780 µg/mL) | 3.4 (≈ 1060 µg/mL) | ≥ 14 mg/kg and ≥ 44 µmol/kg | IC50 (MCF-7 cells; [16]): 130 ± 10 nM; IC50 (MCF-7 cells; [17]): 1300 ± 400 nM; Fold protection by DIC (MCF-7 cells; Table 4.1): 10 |
| CCn1c2c(c(C)cc1=O)C(=O)c1c(C)cc(=O)[nH]c1C2=O [Compound 109] | 530 | – | < 500 | – | 4.5 | – | 1500 ± 100 | 0.319 (≈ 95.2 µg/mL) | 5.7 (≈ 1700 µg/mL) | 9.5 (≈ 2830 µg/mL) | 24 (≈ 7160 µg/mL) | 19 (≈ 5670 µg/mL) | 19 (≈ 5670 µg/mL) | 9.5 (≈ 2830 µg/mL) | 24 (≈ 7160 µg/mL) | 18 (≈ 5370 µg/mL) | 10 mg/kg and 35 µmol/kg | IC50 (MCF-7 cells; [16]): 200 ± 10 nM; IC50 (MCF-7 cells; [17]): 3400 ± 200 nM; Fold protection by DIC (MCF-7 cells; Table 4.1): 17 |
